From patent publication US8216550B2, “Luciferins” (University of Massachusetts, priority 2007, dated 2012)

system: Firefly luciferase; experiment: not given; details: amino-luciferin as substrate, literature value; cited from earlier work

Row | Molecule | maximal emission reported by White et al., JACS (1966) 88: 2015
1 | amino-luciferin [reference compound] | 605 nm

system: Firefly luciferase; experiment: Luciferase assay: emission spectrum of purified luciferase with luciferin substrates; details: substrate of purified firefly luciferase, pH 7.8, Spex Fluoromax-3

Row | Molecule | maximal emission
2 | O=C(O)[C@H]1CSC(c2nc3ccc(O)cc3s2)=N1 [D-luciferin, reference compound] | 555 nm
3 | CN(C)c1ccc2nc(C3=N[C@@H](C(=O)O)CS3)sc2c1 [dimethylamino-luciferin (1a), D-2-(6′-dimethylamino-2′-benzothiazolyl)-Δ^2-thiazoline-4-carboxylic acid] | 624 nm
4 | CCNc1ccc2nc(C3=N[C@@H](C(=O)O)CS3)sc2c1 [ethylamino, D-2-(6′-ethylamino-2′-benzothiazolyl)-Δ^2-thiazoline-4-carboxylic acid] | 607 nm

Now from value to molecule:

Row | maximal emission | Molecule
5 | 607 nm | CC(C)Nc1ccc2nc(C3=N[C@@H](C(=O)O)CS3)sc2c1 [isopropylamino, D-2-(6′-isopropylamino-2′-benzothiazolyl)-Δ^2-thiazoline-4-carboxylic acid]
6 | 607 nm | CCCCNc1ccc2nc(C3=N[C@@H](C(=O)O)CS3)sc2c1 [n-butylamino, D-2-(6′-butylamino-2′-benzothiazolyl)-Δ^2-thiazoline-4-carboxylic acid]
7 | 593 nm | amino-luciferin [reference compound]
